We go through three compounds from patent publication US20210361570A1, “IN SITU GELLING POLYSACCHARIDE-BASED NANOPARTICLE HYDROGEL COMPOSITIONS, AND METHODS OF USE THEREOF” (McMaster University, priority 2020, published 2021).

One data set has as its system C. elegans. The data set can be described thus: 6-OHDA Parkinsonian model, electrotaxis movement testing. It is filed as in vivo. The conditions noted are these: L-DOPA free or loaded in 25 w/v % hydrogels (DS=0.5). How it is done: The stability of L-DOPA delivered using the SNP-CHO@CMCh or SNP-APBA@CMCh bulk hydrogels was assessed using an in vivo C. elegans assay. Wild-type late larval stage worms were exposed to 30 mM 6-OHDA in ascorbic acid for 1 hr to induce dopaminergic neurodegeneration. After 24 hours, worms were added to a 12-well plate in which each well contains 400 μL of SNP-CHO@CMCh or SNP-APBA@CMCh bulk hydrogel as well as E. coli (for food) to form a 3 mL liquid culture in which worms are continuously exposed to released L-DOPA.
Worms were sampled at various time points (0 h, 4 h, 8 h, 12 h, 24 h, 48 h) to assess movement. Motility changes, assessed based on the average speed of the worms in mm/s (minimum n=20 worms per sample and time point tested), were measured using an in-house voltage-induced electrotaxis microfluidic assay developed to quantify drug induced dopaminergic neuron signal-mediated movement. In addition to the test sample (Group 1), control groups of no 6-OHDA, no hydrogel (Group 2, untreated control), 6-OHDA, no hydrogel (Group 3, drug control); 6-OHDA, blank hydrogel (Group 4, material control); and 6-OHDA, drug(s) without hydrogel (Group 5, delivery vehicle control) were assessed (minimum n=20 worms/group). L-DOPA was loaded in both SNP-CHO@CMCh and SNP-APBA@CMCh 25 w/v % hydrogels (DS=0.5) at 3 or 9 […].

Data set [1] in a line: L-DOPA anti-oxidation in hydrogels (visual colour). It is filed as physicochemical. Conditions: 3 mg L-DOPA, MES pH 6 or PBS pH 7.4, 12 h at 37° C. The method, then:
200 μL of 25 w/v % (DS 0.5) SNP-CHO or SNP-APBA was combined with 200 μL of CMCh (pH 7) to form a 400 μL bulk hydrogel in a 12 plate well. Gels were loaded with 3 mg of L-DOPA by suspending the powered drug into the aqueous SNP precursor before gelling. The gels were submerged in 3 mL of 0.1M MES (pH 6) buffer or 10 mM PBS (pH 7.4) buffer. Oxidation of L-DOPA was assessed visually, with the formation of dark yellow-brown and black precipitates indicating L-DOPA oxidation to its dopaquinone and dopachrome polymer forms, and assessed with respect to controls of L-DOPA at the same concentration in each of the respective buffers (without a hydrogel).

The nature of data set [2]: Body weight in the in vivo anti-tumor test. Set-up: species or system C57BL/6 mice. The conditions noted are these: 5.0 mg/kg DOX tail vein every three days, ten days. How it is done: (§1) The antitumor effect of DOX, DOX-Clusters (control), and Dox-iClusters was evaluated by tracking the relative tumor volume (V/V0) after treatment with the nanocluster nanogels. C57BL/6 mice were injected intradermally with B16-F10 melanoma tumor cells, allowing the tumors to grow to ˜20 mm^3 by day 7 after the injections. The mice were treated by tail vein injection of 200 μL of PBS, DOX, DOX-iCluster and DOX-Cluster every three days (5.0 mg/kg of DOX for all formulations), after which both the tumor size and body weight were monitored regularly over a 10-day period.

The next data set concerns B16-F10 melanoma tumor. The data set can be described thus: In vivo anti-tumor test (relative tumor volume). The conditions noted are these: 5.0 mg/kg DOX tail vein every three days, 10-day period. Also on record: species or system C57BL/6 mice. The method, then:
as §1

Data set [3] relates to Sprague-Dawley rats, MK-801 model of schizophrenia. The data set can be described thus: MK-801 schizophrenia model, social interaction behavioral testing. Format: in vivo, rat. The method, then: Age-matched male Sprague-Dawley rats (250-300 g, Charles River Canada, St. Constant, QC, Canada) received care that complied with protocols approved by the Animal Research Ethics Board at McMaster University and the guidelines of the Canadian Council on Animal Care. Animals were housed individually in standard cages on a reverse 12 h light cycle. Upon arrival, animals were habituated to their holding room for 1 week, followed by a week of handling (touching and petting for at least 5 minutes each, every other day) prior to any testing. Animals were handled regularly throughout the duration of all experimentation (2-3 times per week outside of experiments) and housed in a room maintained at 22° C. with 50% humidity and access to food and water ad libitum. The animal masses at the end of the experiments were between 400-550 g.
For the in situ animal injections, all drugs were dissolved in artificial cerebrospinal fluid (aCSF) solution formulated in-lab comprised of 120 mM NaCl, 4.8 mM KCl, 1.2 mM KH2PO4, 1.2 mM MgSO4, 25 mM NaHCO3, 2.5 mM CaCl2), and 10 mM D-glucose. Further, PAOPA (with or without hydrogel formulation) was administered at concentration of 0.5 mg/kg intranasally, selected based on effective concentrations observed via dose-dependent intraperitoneal (IP) administrations. The PAOPA was added equally to both the CMCh and the SNP solutions and allowed to sit for 24 h to allow for any polymer-drug interactions to occur before gelation. All precursor solutions were passed through a 0.45 µm filter (VWR) to sterilize them prior to injection into a live animal. […]
To administer the payload for the five experimental groups, a single rat was removed from its cage and placed into a closed anesthesia box with transparent sides for proper observation. Aerosolized isoflurane (with oxygen) was passed into the box until the rat was determined to be anesthetized via foot pinching reflex test. […]
Rats were assessed for social interaction with and without MK-801 and drug/formulation administration. […]

The test system is the same in data set [4]. Conditions: PAOPA 1 mg/kg IP, literature; cited from earlier work.

The structures appear in SMILES notation.

On to `N[C@@H](Cc1ccc(O)c(O)c1)C(=O)O` [L-DOPA, 3,4-dihydroxy-L-phenylalanine], for which, in the data set with C. elegans, the “duration of improved swimming speed / motility vs 6-OHDA control” value is on record as 4 h. Also, the “L-DOPA oxidation (colour)” value in data set [1] is reported as “became black with oxidation”.
As for `COc1cccc2c1C(=O)c1c(O)c3c(c(O)c1C2=O)C[C@@](O)(C(=O)CO)C[C@@H]3O[C@H]1C[C@H](N)[C@H](O)[C@H](C)O1.Cl` [free DOX, doxorubicin hydrochloride], the body weight entry in data set [2] is on record as “significantly reduced body weight”. The “relative tumor volume (V/V0)” value in the data set with B16-F10 melanoma tumor came out at 24 × volume increase.
On to `NC(=O)CN1CC[C@@H](NC(=O)[C@@H]2CCCN2)C1=O` [PAOPA], for which the social interaction deficits entry in data set [3] (0.5 mg/kg IN 30 minutes before MK-801, assessed 30 minutes post-MK-801) was “expected attenuation of social interaction deficits”; in data set [3] (0.5 mg/kg IN, MK-801 challenge 24 hours later) it was “the benefits of PAOPA were no longer observed”. For the same compound, the “total social interaction time relative to untreated control” value in data set [3] (no MK-801, intranasal, PAOPA 0.5 mg/kg or unloaded hydrogel) is “neither increased nor decreased total interaction times”. In addition, in data set [4], the social interaction time entry is on record as “did not affect social interaction time”.
